Earlier results on two compounds are cited in patent publication US12173009B2, “Diamine derivatives as inhibitors of leukotriene A4 hydrolase” (CELLTAXIS, LLC, priority 2005, dated 2024).

For data set [1], the system named is lower affinity LTB4 receptors on neutrophils. The following applies: additional lower affinity receptors on neutrophils.
For a further data set, the target named is T1, Human BLT2 (Homo sapiens, UniProt Q9NPC1).
T1 sequence (Q9NPC1 1-358): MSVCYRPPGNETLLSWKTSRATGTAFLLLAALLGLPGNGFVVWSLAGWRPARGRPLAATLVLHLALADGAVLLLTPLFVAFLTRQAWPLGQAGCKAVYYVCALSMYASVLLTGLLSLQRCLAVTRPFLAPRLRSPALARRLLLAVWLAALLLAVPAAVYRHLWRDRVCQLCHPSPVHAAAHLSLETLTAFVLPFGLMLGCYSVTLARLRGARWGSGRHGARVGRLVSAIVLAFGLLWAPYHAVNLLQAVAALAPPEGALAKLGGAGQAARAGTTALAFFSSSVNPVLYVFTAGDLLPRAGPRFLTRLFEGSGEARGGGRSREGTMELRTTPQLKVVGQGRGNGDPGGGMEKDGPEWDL
The following applies: Human BLT2 versus BLT1.

The target of a further data set is BLT1. The following applies: Human BLT1 and its mouse, rat and guinea pig orthologues.
Data set [2] concerns the target T2, LTA4-h (Mus musculus, UniProt P24527).
T2 construct: host or cells: mouse blood (endogenous enzyme)
T2 sequence (P24527 1-611): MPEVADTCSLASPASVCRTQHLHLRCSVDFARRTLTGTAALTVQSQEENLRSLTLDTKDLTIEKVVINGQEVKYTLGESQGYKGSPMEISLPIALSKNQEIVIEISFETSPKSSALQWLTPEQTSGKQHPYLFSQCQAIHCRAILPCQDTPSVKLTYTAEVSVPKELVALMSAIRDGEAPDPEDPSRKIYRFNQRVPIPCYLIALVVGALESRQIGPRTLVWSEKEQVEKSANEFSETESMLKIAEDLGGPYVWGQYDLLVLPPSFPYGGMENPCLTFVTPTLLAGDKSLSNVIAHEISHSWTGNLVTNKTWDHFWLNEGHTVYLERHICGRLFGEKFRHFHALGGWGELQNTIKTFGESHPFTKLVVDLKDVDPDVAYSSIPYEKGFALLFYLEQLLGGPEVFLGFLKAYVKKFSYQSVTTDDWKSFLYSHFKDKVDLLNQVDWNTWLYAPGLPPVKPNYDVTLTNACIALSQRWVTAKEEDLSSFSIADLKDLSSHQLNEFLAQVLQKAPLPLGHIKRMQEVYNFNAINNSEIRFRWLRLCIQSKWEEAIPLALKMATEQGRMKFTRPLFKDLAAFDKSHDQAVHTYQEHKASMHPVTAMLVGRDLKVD
The following applies: oral administration; mouse blood ex vivo.

The test system of another data set is spontaneous colitis. The following applies: eight weeks of treatment; cotton top tamarins.
Data set [3] concerns the target T3, LTA4-h (Rattus norvegicus, UniProt P30349).
T3 construct: host or cells: rat peritoneum (endogenous enzyme)
T3 sequence (P30349 1-611): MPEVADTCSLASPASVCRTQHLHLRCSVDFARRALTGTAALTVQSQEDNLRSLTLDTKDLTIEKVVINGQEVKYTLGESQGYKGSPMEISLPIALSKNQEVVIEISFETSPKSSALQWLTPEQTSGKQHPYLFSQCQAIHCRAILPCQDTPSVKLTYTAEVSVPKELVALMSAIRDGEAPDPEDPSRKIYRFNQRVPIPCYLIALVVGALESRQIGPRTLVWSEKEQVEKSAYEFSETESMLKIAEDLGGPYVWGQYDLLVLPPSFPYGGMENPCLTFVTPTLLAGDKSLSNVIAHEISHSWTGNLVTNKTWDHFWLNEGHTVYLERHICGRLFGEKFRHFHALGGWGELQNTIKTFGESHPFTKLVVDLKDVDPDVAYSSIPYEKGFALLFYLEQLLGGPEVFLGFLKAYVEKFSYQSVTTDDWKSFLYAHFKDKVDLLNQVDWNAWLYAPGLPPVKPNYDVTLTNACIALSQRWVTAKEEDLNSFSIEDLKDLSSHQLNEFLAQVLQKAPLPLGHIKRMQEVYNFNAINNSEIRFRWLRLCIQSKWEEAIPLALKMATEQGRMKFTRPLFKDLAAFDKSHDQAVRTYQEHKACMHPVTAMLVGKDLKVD
The following applies: oral administration; rat peritoneum in vivo.

By Kd is commonly meant the free concentration of one partner at which half of the binding sites on the other are occupied at equilibrium, for simple one-to-one binding. For `CCCCC/C=C\C[C@@H](O)/C=C/C=C/C=C\[C@@H](O)CCCC(=O)O` [LTB4, Leukotriene B4], the equilibrium dissociation constant (Kd) in data set [1] is more than 60 nM; at BLT1 it was 0.1 to 0.7 nM. In addition, on Human BLT2, the “lower affinity of BLT2 for LTB4 than BLT1” value is listed as 20 fold.

As to `CN(CCCOc1ccc(Cc2ccccc2)cc1)CCC(=O)O.Cl` [SC57461], the “ionophore-induced LTB4 production” value at LTA4-h [2] and on LTA4-h [3] was “caused inhibition” in each case. Besides, the colitis symptoms entry in the data set on spontaneous colitis is given as “significantly improved colitis symptoms”.
